Experimental data as given in PubChem BioAssay AID2060893 (Molecular Pharmacology Branch, DTP, NCI, 2025).

System: K86415-001-R-J1-PDC complex spheroids, viability
Assay: Anticancer human tumor K86415-001-R-J1-PDC patient-derived lung adenocarcinoma cell line growth inhibition [RAS]
Conditions: for viability, T/C: stronger effect = lower value
Excerpt: RAS pathway inhibitors in Combinations in Complex Spheroids
A high-throughput screen of multi-cell type tumor spheroids was designed to identify active combinations of RAS pathway inhibitors and targeted small molecules. Complex spheroids include a stromal component modeled by human endothelial cells (HUVEC) and fibroblasts modeled by human mesenchymal stem cells (MSCs). The concentration ranges selected for each drug and investigational agent were based upon clinically achievable concentrations if the clinical Cmax of the agent was known.
Compounds. The drugs and investigational agents: abemaciclib (NSC768073), cobimetinib (NSC768068), divarasib (GDC6063, NSC841802), docetaxel (NSC628503), GDC-1971 (RLY-1971, NSC841576), gemcitabine (NSC613327), inavolisib (NSC800729), ipatasertib (NSC767898), KB-0742 (NSC834161), MRTX-1133 (NSC836407), osimertinib (NSC779217), RMC-4630 (NSC839698), RMC-6236 (NSC851965), RMC-6291 (NSC852671), Ro-3306 (NSC812927), sapanisertib (NSC764658), SN-38 (NSC673596), staurosporine (NSC755774), SY5609 (NSC837396), and tovorafenib (DAY101, NSC766906), were obtained from the National Cancer Institute (NCI) Developmental Therapeutics Program Chemical Repository. The FDA-approved anticancer drug set is available from the NCI Developmental Therapeutics Program. […] The stock solutions were prepared in dimethyl sulfoxide (DMSO, Sigma-Aldrich, St. Louis, MO, cat. D2650) at 800-fold the tested concentration and stored at -70 degrees C prior to their use. All drugs and investigational agents were tested over a range starting from a high concentration at or near the clinical Cmax and decreasing in half-log increments. If the clinical Cmax for an agent had not been determined, the highest concentration tested was 10 microM.
Cell Culture. All cells were maintained in an incubator at 37 degrees C and 5% CO2 with 95% humidity. The PDC lines were cultured according to standard operating procedures established by the NCI PDMR. All PDCs were thawed and cultured in Matrigel-coated flasks prepared with a working solution of 1X Ham's F-12 nutrient mix, without supplementation (Invitrogen, Waltham, MA, cat. 11765054), 100 U/mL penicillin-streptomycin (Invitrogen, cat. 15140122), and 2.5% Matrigel (Corning Inc., Corning, NY, cat. 354248) for the first three passages. The 362531-283-R-J2-PDC and 782815-120-R-J1-PDC lines were cultured in 6C/Colon 1B media, which includes advanced DMEM/F-12 (Thermo Fisher Scientific, cat. 12634028), 10 mM HEPES (Thermo Fisher Scientific, cat. 15630080), 1X GlutaMAX supplement (Thermo Fisher Scientific, cat. 35050061), 0.1 mg/mL primocin (InvivoGen, San Diego, CA, cat. ant-pm-2), 10% defined fetal bovine serum, heat inactivated (HyClone Laboratories Inc., Logan, UT, cat. SH30070.03HI), 50% L-WRN conditioned media (ATCC, cat. CRL-3276), 1.25 mM N-Acetyl-L-cysteine (Sigma-Aldrich, cat. A9165), 10 mM nicotinamide (Sigma-Aldrich, cat. N0636), 1X B-27 supplement (Thermo Fisher Scientific, cat. 17504044), 1X N-2 supplement (Thermo Fisher Scientific, cat. 17502048), 50 ng/mL human EGF (Thermo Fisher Scientific, cat. PHG0311), and 10 microM Y-27632 dihydrochloride (Tocris Bioscience, cat. 1254). The K12877-001-R-J1-PDC line was cultured in 6I media, which includes all 6C/Colon 1B media plus 10 ng/mL human FGF-10 (PeproTech, cat. 100-26), 1 ng/mL human FGF-2 (PeproTech, cat. 100-18B), 1 µM prostaglandin E2 (Tocris Bioscience, cat. 2296), […] hydrocortisone (Sigma-Aldrich, cat. H4001), and […] bovine insulin (Sigma-Aldrich, cat. I6634). The K86415-001-R-J1-PDC line was cultured in 6D media, which includes all 6C/Colon 1B media components minus the L-WRN conditioned media. The 485176-168-R4-J1-PDC was cultured in PANC media, which includes all 6C/Colon 1B media plus 100 ng/mL human FGF-10 (PeproTech, cat. 100-26), 500 nM SB-431542 (Selleckchem, cat. S1067), and 10 nM gastrin (Tocris Bioscience, cat. 3006). […]
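Note: spheroids exposed to agents for seven days before readout.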

Work on `CC1(C)CCC(Nc2ncc(C(F)(F)F)c(-c3c[nH]c4c(P(C)(C)=O)c(C#N)ccc34)n2)CN1` (centres undefined) + C=CC(=O)N1CCN(c2nc(OCC3CCCN3C)nc3c(F)c(-c4nc(N)cc(C)c4C(F)(F)F)c(Cl)cc23)C(C)C1 yielded an IC50 (curve of first compound, second compound 0.00316 µM) of under 0.949 nM, an IC50 (curve of first compound, second compound 0.01 µM) of under 0.949 nM and an IC50 (curve of first compound, second compound 0.0316 µM) of under 0.949 nM. For the same compound, the IC50 (curve of first compound, second compound 0.1 µM) was under 0.949 nM, the IC50 (curve of first compound, second compound 0.316 µM) was under 0.949 nM and the IC50 (curve of first compound, second compound 1 µM) was under 0.949 nM. For the same compound, the viability, T/C (second compound 0.00316 µM, first compound 0.000949 µM) was 18.3%, the viability, T/C (second compound 0.00316 µM, first compound 0.003 µM) was 22.2% and the viability, T/C (second compound 0.00316 µM, first compound 0.00949 µM) was 18.7%. It also gave a viability, T/C (second compound 0.00316 µM, first compound 0.03 µM) of 20.3%, a viability, T/C (second compound 0.00316 µM, first compound 0.0949 µM) of 22.7% and a viability, T/C (second compound 0.00316 µM, first compound 0.3 µM) of 22.8%. It also gave a viability, T/C (second compound 0.01 µM, first compound 0.000949 µM) of 15.2%, a viability, T/C (second compound 0.01 µM, first compound 0.003 µM) of 12.7% and a viability, T/C (second compound 0.01 µM, first compound 0.00949 µM) of 16.9%. The viability, T/C (second compound 0.01 µM, first compound 0.03 µM) was 13.3%, the viability, T/C (second compound 0.01 µM, first compound 0.0949 µM) was 15.5% and the viability, T/C (second compound 0.01 µM, first compound 0.3 µM) was 20.2%. It also gave a viability, T/C (second compound 0.0316 µM, first compound 0.000949 µM) of 12.8%, a viability, T/C (second compound 0.0316 µM, first compound 0.003 µM) of 14% and a viability, T/C (second compound 0.0316 µM, first compound 0.00949 µM) of 12.7%. For the same compound, the viability, T/C (second compound 0.0316 µM, first compound 0.03 µM) was 14.5%, the viability, T/C (second compound 0.0316 µM, first compound 0.0949 µM) was 15.6% and the viability, T/C (second compound 0.0316 µM, first compound 0.3 µM) was 16.5%. It also gave a viability, T/C (second compound 0.1 µM, first compound 0.000949 µM) of 11.2%, a viability, T/C (second compound 0.1 µM, first compound 0.003 µM) of 12.5% and a viability, T/C (second compound 0.1 µM, first compound 0.00949 µM) of 12.7%. The viability, T/C (second compound 0.1 µM, first compound 0.03 µM) was 13.1%, the viability, T/C (second compound 0.1 µM, first compound 0.0949 µM) was 13.9% and the viability, T/C (second compound 0.1 µM, first compound 0.3 µM) was 14.9%. For the same compound, the viability, T/C (second compound 0.316 µM, first compound 0.000949 µM) was 9.63%, the viability, T/C (second compound 0.316 µM, first compound 0.003 µM) was 13.1% and the viability, T/C (second compound 0.316 µM, first compound 0.00949 µM) was 12.1%. The viability, T/C (second compound 0.316 µM, first compound 0.03 µM) was 12.8%, the viability, T/C (second compound 0.316 µM, first compound 0.0949 µM) was 13.8% and the viability, T/C (second compound 0.316 µM, first compound 0.3 µM) was 13.4%. The viability, T/C (second compound 1 µM, first compound 0.000949 µM) was 10.9%, the viability, T/C (second compound 1 µM, first compound 0.003 µM) was 11.1% and the viability, T/C (second compound 1 µM, first compound 0.00949 µM) was 13.6%. For the same compound, the viability, T/C (second compound 1 µM, first compound 0.03 µM) was 13.8%, the viability, T/C (second compound 1 µM, first compound 0.0949 µM) was 15.9% and the viability, T/C (second compound 1 µM, first compound 0.3 µM) was 14.9%.
With `C#Cc1c(F)ccc2cc(O)cc(-c3ncc4c(N5CC6CCC(C5)N6)nc(OCC56CCCN5CC(F)C6)nc4c3F)c12` (centres undefined) the viability, T/C (compound 0.0316 µM) was 101% [middle of 8 runs], the viability, T/C (compound 0.1 µM) was 106% [middle of 8 runs] and the viability, T/C (compound 0.316 µM) was 88.2% [middle of 8 runs]. For the same compound, the viability, T/C (compound 1 µM) was 65.2% [middle of 8 runs], the viability, T/C (compound 3.16 µM) was 38.2% [middle of 8 runs] and the viability, T/C (compound 10 µM) was 17.8% [middle of 8 runs]. For the same compound, the IC50 (compound alone, run of 07/15/2024) was 1.81 µM [middle of 7 runs].
